What was measured:
[1] = Daily home questionnaire of side effects, first 4 days after PDT; format: in vivo, human; conditions: for Pain Score Mean (0-10 visual-analog scale): average of 23 patients
Procedure: (§1) Several secondary endpoints were also measured. For pain assessment, patients were asked every 5 to 10 min during illumination to report their pain on a 0 to 10 visual-analog (VAS) scale. Erythema was recorded photographically at Day 1 and on Day 4 post PDT. A side effect profile was recorded by each patient in a daily home questionnaire to document the presence or absence of eleven different signs and symptoms in the 4 days immediately following PDT (see Table 2).

[2] = Erythema after PDT, recorded photographically; format: in vivo, human; conditions: 1-4 days after PDT; majority of patients
Procedure: as §1

Compound: NCC(=O)CCC(=O)O [ALA, 5-aminolevulinic acid]
- Peeling ([1]; Side A (test PDT), DAY 2): 4 percentage of patients
- Redness ([1]; Side A (test PDT), DAY 2): 100, 100 percentage of patients
- Stinging ([1]; Side A (test PDT), DAY 2): 70, 70 percentage of patients
- Swelling ([1]; Side A (test PDT), DAY 2): 26, 26 percentage of patients
- Pain Score Mean (0-10 visual-analog scale) ([1]; Side A (test PDT), DAY 2): 2.5
- Bleeding ([1]; Side A (test PDT), DAY 3): 13 percentage of patients
- Blisters ([1]; Side A (test PDT), DAY 3): 17 percentage of patients
- Burning ([1]; Side A (test PDT), DAY 3): 35, 35 percentage of patients
- Crusting ([1]; Side A (test PDT), DAY 3): 30 percentage of patients
- Itching ([1]; Side A (test PDT), DAY 3): 70 percentage of patients
- Open sores ([1]; Side A (test PDT), DAY 3): 9, 9 percentage of patients
- Peeling ([1]; Side A (test PDT), DAY 3): 22 percentage of patients
- Redness ([1]; Side A (test PDT), DAY 3): 91 percentage of patients
- Stinging ([1]; Side A (test PDT), DAY 3): 39, 39 percentage of patients
- Swelling ([1]; Side A (test PDT), DAY 3): 9 percentage of patients
- Pain Score Mean (0-10 visual-analog scale) ([1]; Side A (test PDT), DAY 3): 1.6
- Bleeding ([1]; Side A (test PDT), DAY 4): 17 percentage of patients
- Blisters ([1]; Side A (test PDT), DAY 4): 4 percentage of patients
- Burning ([1]; Side A (test PDT), DAY 4): 26, 26 percentage of patients
- Crusting ([1]; Side A (test PDT), DAY 4): 35, 35 percentage of patients
- Itching ([1]; Side A (test PDT), DAY 4): 65, 65 percentage of patients
- Open sores ([1]; Side A (test PDT), DAY 4): 4, 4 percentage of patients
- Peeling ([1]; Side A (test PDT), DAY 4): 48 percentage of patients
- Redness ([1]; Side A (test PDT), DAY 4): 83 percentage of patients
- Stinging ([1]; Side A (test PDT), DAY 4): 35, 35 percentage of patients
- Swelling ([1]; Side A (test PDT), DAY 4): 0, 0 percentage of patients
- Pain Score Mean (0-10 visual-analog scale) ([1]; Side A (test PDT), DAY 4): 1.0, 1.0
- Bleeding ([1]; Side B (control PDT), DAY 1): 0, 0 percentage of patients
- Blisters ([1]; Side B (control PDT), DAY 1): 13, 13 percentage of patients
- Burning ([1]; Side B (control PDT), DAY 1): 65, 65 percentage of patients
- Crusting ([1]; Side B (control PDT), DAY 1): 4 percentage of patients
- Itching ([1]; Side B (control PDT), DAY 1): 43, 43 percentage of patients
- Open sores ([1]; Side B (control PDT), DAY 1): 0, 0 percentage of patients
- Peeling ([1]; Side B (control PDT), DAY 1): 0 percentage of patients
- Redness ([1]; Side B (control PDT), DAY 1): 91, 91 percentage of patients
- Stinging ([1]; Side B (control PDT), DAY 1): 65, 65 percentage of patients
- Swelling ([1]; Side B (control PDT), DAY 1): 22 percentage of patients
- Pain Score Mean (0-10 visual-analog scale) ([1]; Side B (control PDT), DAY 1): 2.9
- Bleeding ([1]; Side B (control PDT), DAY 2): 0 percentage of patients
- Blisters ([1]; Side B (control PDT), DAY 2): 9 percentage of patients
- Burning ([1]; Side B (control PDT), DAY 2): 52, 52 percentage of patients
- Crusting ([1]; Side B (control PDT), DAY 2): 17 percentage of patients
- Itching ([1]; Side B (control PDT), DAY 2): 74, 74 percentage of patients
- Open sores ([1]; Side B (control PDT), DAY 2): 9, 9 percentage of patients
- Peeling ([1]; Side B (control PDT), DAY 2): 9 percentage of patients
- Redness ([1]; Side B (control PDT), DAY 2): 100, 100 percentage of patients
- Stinging ([1]; Side B (control PDT), DAY 2): 70, 70 percentage of patients
- Swelling ([1]; Side B (control PDT), DAY 2): 26, 26 percentage of patients
- Pain Score Mean (0-10 visual-analog scale) ([1]; Side B (control PDT), DAY 2): 2.4
- Bleeding ([1]; Side B (control PDT), DAY 3): 4 percentage of patients
- Blisters ([1]; Side B (control PDT), DAY 3): 13 percentage of patients
- Burning ([1]; Side B (control PDT), DAY 3): 35, 35 percentage of patients
- Crusting ([1]; Side B (control PDT), DAY 3): 26 percentage of patients
- Itching ([1]; Side B (control PDT), DAY 3): 65 percentage of patients
- Open sores ([1]; Side B (control PDT), DAY 3): 9, 9 percentage of patients
- Peeling ([1]; Side B (control PDT), DAY 3): 26 percentage of patients
- Redness ([1]; Side B (control PDT), DAY 3): 87 percentage of patients
- Stinging ([1]; Side B (control PDT), DAY 3): 39, 39 percentage of patients
- Swelling ([1]; Side B (control PDT), DAY 3): 13 percentage of patients
- Pain Score Mean (0-10 visual-analog scale) ([1]; Side B (control PDT), DAY 3): 1.5
- Bleeding ([1]; Side B (control PDT), DAY 4): 13 percentage of patients
- Blisters ([1]; Side B (control PDT), DAY 4): 9 percentage of patients
- Burning ([1]; Side B (control PDT), DAY 4): 26, 26 percentage of patients
- Crusting ([1]; Side B (control PDT), DAY 4): 35, 35 percentage of patients
- Itching ([1]; Side B (control PDT), DAY 4): 65, 65 percentage of patients
- Open sores ([1]; Side B (control PDT), DAY 4): 4, 4 percentage of patients
- Peeling ([1]; Side B (control PDT), DAY 4): 52 percentage of patients
- Redness ([1]; Side B (control PDT), DAY 4): 74 percentage of patients
- Stinging ([1]; Side B (control PDT), DAY 4): 35, 35 percentage of patients
- Swelling ([1]; Side B (control PDT), DAY 4): 0, 0 percentage of patients
- Pain Score Mean (0-10 visual-analog scale) ([1]; Side B (control PDT), DAY 4): 1.0, 1.0
- Major inflammatory parameters, Side A versus Side B ([1]; first 4 days post-treatment): no noticeable differences
- Spotty erythema (inflamed AK lesions), Side A versus Side B [2]: approximately equal on Side A and Side B

From US12667735B2, “Methods for reducing pain during photodynamic therapy of actinic keratosis” (Sun Pharmaceutical Industries, Inc., priority 2019, dated 2026)
